Where a name gives a salt, the structure may show the parent alone. Read-outs that look alike come from different tables or passages of the source. Marks after values point to notes of the source that are not given here.
Columns and labels:
HeLa Ohio cells = test: Cytotoxicity determination in HeLa Ohio cells (crystal violet, 72 h); format: cell-based, human; conditions: for 50% Cytotoxic concentration in HeLa cells, Mean: 72 h
Procedure: HeLa Ohio and MDCK cells were seeded at 1.6 × 10^4 and 2.3 × 10^4 cells/well in 100 μL growth medium in 96 well flat-bottomed microtiter plates, respectively. The cytotoxicity of the test compounds and extracts was determined on two-day-old confluent cell monolayers grown in the internal 60 wells of a microtiter plate (5% carbon dioxide, 37 °C). After removal of the growth medium, 50 μL of test medium and eight half-log dilutions of the reference compounds pleconaril or zanamivir, or eight half-log dilutions of test items in test medium (each concentration in duplicates) were added. The concentration range of reference compounds applied to cytotoxicity assays was 0.0316–100 μM. […] Six cell control wells were incubated with 100 μL test medium. After 72 h of incubation at 37 °C in 5% carbon dioxide atmosphere, the Dynex Immuno Assay System (Guernsey, UK), developed for automated ELISA techniques, was applied to gently wash, stain, measure, and analyze the viability of the cell monolayers based on optical density determination. After aspiration of supernatant, cell monolayers were washed three times with 300 μL physiological phosphate-buffered saline to remove death cells. The remaining cells were fixed and stained with 50 μL of 0.07% crystal violet (w/v), 20% ethanol, 3% formalin solution in water for 10 min. Six washings with 300 μL of water followed to remove excess stain. Before measuring the optical density, we solubilized the crystal violet by adding 100 μL lysis buffer (0.898 g of sodium citrate and 1.25 mL of 1 N HCl in 98.05 mL 47.5% ethanol) for 20 min. The absorbances were red at two wavelengths (550 and 690 nm). Cell viability in a well was defined as the percentage of the mean value of optical density resulting from the six cell controls, which was set 100% cell viability. The inhibitor concentration that reduces the mean value of optical density determined for cell controls by half is called 50% cytotoxic concentration (CC50). A minimum of three independent experiments were performed.

rhinovirus B14 [1] = test: CPE inhibitory assay with rhinovirus B14 in HeLa Ohio cells; format: cell-based; conditions: for CPE inhibition at non-cytotoxic concentrations: 0.0316–100 μM
[2] = tested on: influenza virus A/Jena/8178/09; conditions: for CPE inhibition at non-cytotoxic concentrations: 0.0316–100 μM; for CPE inhibition at non-cytotoxic concentrations / Effect on influenza virus A/Jena/8178/09-induced CPE (in words): MDCK cells; for Effect on influenza virus A/Jena/8178/09-induced CPE (in words): non-cytotoxic concentrations
[3] = tested on: influenza virus A/Hong Kong/68; conditions: for CPE inhibition at non-cytotoxic concentrations: 0.0316–100 μM; for Effect on influenza virus A/Hong Kong/68-induced CPE (in words): non-cytotoxic concentrations
rhinovirus B14 [4] = conditions: 3-day pretreatment of primary human tracheal epithelial cells; cited from earlier work
rhinovirus A2 = test: CPE inhibitory assay with rhinovirus A2 in HeLa Ohio cells; conditions: for CPE inhibition at non-cytotoxic concentrations: 0.0316–100 μM, HeLa Ohio cells
[5] = following the application of 600 mg; cited from earlier work
[6] = tested on: rhinovirus (stored under rhinovirus A2; the sentence does not specify which rhinovirus); test: in vitro; conditions: human
[7] = tested on: influenza virus A/Jena/8178/09; test: Hemagglutination inhibition assay with human erythrocytes; set-up: species or system influenza A virus (H1N1pdm09); conditions: 4 hemagglutination units, maximum test concentration 1 μM
Procedure: (§1) The negative control (no hemagglutination) consists only 50 μL phosphate-buffered saline (n = 8). […] We added 50 μL of a 1% human erythrocytes solution to each well of the microplate. After a two-hour incubation at 4 °C, we recorded the lowest compound concentration that induces hemagglutination or inhibits virus-mediated hemagglutination (minimum hemagglutination or hemagglutination inhibitory concentration, respectively).

human erythrocytes = test: Hemagglutination by test item in the absence of virus; conditions: maximum test concentration 1 μM
Procedure: as §1

viral neuraminidase = conditions: 37 °C for 24 h
Procedure: Thereafter, we incubated the assays at 37 °C for further 24 h allowing viral neuraminidase activation [43]. The activated viral neuraminidase abrogates the virus-mediated hemagglutination in absence of inhibitors (hemagglutination control) or in the presence of ineffective inhibitor concentrations. Neuraminidase inhibitors prevent this abrogation of virus-mediated hemagglutination.

[8] = tested on: influenza virus A/Jena/8178/09; test: organism not typed; conditions: MDCK, read-out: 50% Inhibitory concentration against Influenza A viruses Jena/8178, Mean
[9] = tested on: influenza virus A/Hong Kong/68; test: organism not typed; conditions: MDCK, read-out: 50% Inhibitory concentration against Influenza A viruses HK/68, Mean
[10] = tested on: influenza virus A/Hong Kong/68; test: Time-of-addition plaque-reduction assay in MDCK cells; conditions: pelargonium extract 50 μg/mL, zanamivir 1 μM

Nc1c(Br)cc(Br)cc1CN[C@H]1CC[C@H](O)CC1 [Ambroxol, ambroxol]
50% Cytotoxic concentration in HeLa cells, Mean (HeLa Ohio cells; HeLa Ohio cells): 61.24 µM
50% Cytotoxic concentration in HeLa cells, Mean (HeLa Ohio cells; HeLa Ohio cells, listed as ambroxol): 51.85 µM
CPE inhibition at non-cytotoxic concentrations (rhinovirus B14 [1]): < 50%
50% Cytotoxic concentration in MDCK cells, Mean (MDCK cells; MDCK cells, 72 h): > 100^a μM
CPE inhibition at non-cytotoxic concentrations [2]: less than 50%
Effect on influenza virus A/Jena/8178/09-induced CPE (in words) [2]: did not show any effect
CPE inhibition at non-cytotoxic concentrations ([3]; MDCK cells): less than 50%
Effect on influenza virus A/Hong Kong/68-induced CPE (in words) ([3]; MDCK cells): did not show any effect
Concentration reducing the titer of rhinovirus B14 in the supernatant (rhinovirus B14 [4]): at least 0.1 μM
CPE inhibition at non-cytotoxic concentrations (rhinovirus A2): < 50%

CC(=O)N[C@@H](CS)C(=O)O [N-acetylcysteine]
50% Cytotoxic concentration in HeLa cells, Mean (HeLa Ohio cells; HeLa Ohio cells): > 100^a μM
Cytotoxicity in HeLa Ohio cells (in words) (HeLa Ohio cells; tested concentration range): non-cytotoxic
50% Cytotoxic concentration in MDCK cells, Mean (MDCK cells): > 100^a μM
CPE inhibition at non-cytotoxic concentrations [2]: less than 50%
Effect on influenza virus A/Jena/8178/09-induced CPE (in words) [2]: did not show any effect
CPE inhibition at non-cytotoxic concentrations ([3]; MDCK cells): less than 50%
Effect on influenza virus A/Hong Kong/68-induced CPE (in words) ([3]; MDCK cells): did not show any effect
Maximal plasma concentration [5]: about 16 μM

Cc1cc(CCCOc2c(C)cc(-c3noc(C(F)(F)F)n3)cc2C)on1 [Pleconaril, pleconaril]
Concentration above which a marked dose-dependent cytotoxic effect was seen (HeLa Ohio cells; HeLa Ohio cells): higher than 10 μM
50% Cytotoxic concentration in HeLa cells, Mean (HeLa Ohio cells; HeLa Ohio cells): 28.75 µM
IC50 (rhinovirus B14 [1]; n.a. = not active up to the maximum non-cytotoxic concentration, read-out: 50% Inhibitory concentration against Rhinoviruses B14, Mean): 25 nM
selectivity ratio [6]: > 3500
IC50 (rhinovirus A2; HeLa, read-out: 50% Inhibitory concentration against Rhinoviruses A2, Mean): 8 nM

CC(=O)N[C@H]1[C@H]([C@H](O)[C@H](O)CO)OC(C(=O)O)=C[C@@H]1N=C(N)N [Zanamivir, zanamivir]
Inhibition of virus-mediated hemagglutination (in words) [7]: neither mediated nor inhibited
Induction of hemagglutination (in words) (human erythrocytes): neither mediated nor inhibited
50% Cytotoxic concentration in MDCK cells, Mean (MDCK cells; MDCK cells, 72 h): > 100^a μM
Cytotoxicity in MDCK cells (in words) (MDCK cells; tested concentrations): well tolerated
Selectivity index against Influenza A viruses Jena/8178 [2]: > 14,285
Selectivity index against Influenza A viruses HK/68 [3]: > 12,500
Minimal neuraminidase inhibitory concentration (viral neuraminidase): 0.03 µM
IC50 [8]: 7 nM
IC50 [9]: 8 nM
Plaque production, treatment during adsorption ([10]; 4 °C for 2 h): did not prevent
Plaque production, pre-treatment of cells ([10]; 1 h at 37 °C before infection): did not prevent
Plaque production, pre-treatment of virus ([10]; 1 h at 37 °C before infection): did not prevent
Plaque production, treatment after adsorption ([10]; in agar overlay for 72 h): completely blocked
Plaque production, treatment during and after adsorption [10]: completely blocked

CN(Cc1cc(Br)cc(Br)c1N)C1CCCCC1 [Bromhexine, bromhexine hydrochloride]
50% Cytotoxic concentration in HeLa cells, Mean (HeLa Ohio cells; HeLa Ohio cells): 51.85 µM
50% Cytotoxic concentration in HeLa cells, Mean (HeLa Ohio cells; HeLa Ohio cells, listed as bromhexine): 61.24 µM
CPE inhibition at non-cytotoxic concentrations (rhinovirus B14 [1]): < 50%
Cytotoxic concentration in MDCK cells (MDCK cells; MDCK cells): 100 µM
50% Cytotoxic concentration in MDCK cells, Mean (MDCK cells; MDCK cells, 72 h): 51.29 µM
CPE inhibition at non-cytotoxic concentrations [2]: less than 50%
CPE inhibition at non-cytotoxic concentrations ([3]; MDCK cells): less than 50%
Reduction of influenza virus A/Hong Kong/68-induced CPE ([3]; at 31.6 μM, MDCK cells): 30%
CPE inhibition at non-cytotoxic concentrations (rhinovirus A2): < 50%
